Experiments:
Assay type in all cases: cell-based, human
HCT116-DoxR cells [1] = assay: ROS production (H2DCF-DA, flow cytometry); conditions: 48 h; complexes at IC50, Dox 6 μM, Cis 5 μM
Description: The literature widely describes the relationship between the induction of these types of programmed cell death and the production of reactive oxygen species (ROS).[79]−[81] ROS can arise from endogenous or exogenous sources and play a role in carcinogenesis and tumor development, causing DNA damage.[81],[82] The accumulation of high ROS levels results in oxidative stress in cancer cells, a condition that can be exploited by surpassing the intrinsic antioxidant capacity of tumor cells as a targeted therapeutic approach.[75] It is known that Cu(II) complexes induce ROS production.[38] In this regard, the production of reactive oxygen species was quantified in HCT116-DoxR cells using the 2′,7′-dichlorodihydrofluorescein diacetate (H2DCF-DA) probe, which is rapidly oxidized in the presence of ROS, generating the compound 2′,7′-dichlorodihydrofluorescein (DCF), whose fluorescence can be detected by flow cytometry.[71] The fluorescence intensity is directly proportional to the amount of intracellular ROS. […] TBHP is a widely used organic peroxide in oxidative stress studies as it activates caspase-mediated apoptosis and ROS production.[83]
The quantification of reactive oxygen species (ROS) production was performed using the probe dichlorofluorescein diacetate (H2DCF-DA) (molecular probes: reactive oxygen species (ROS) detection reagents, Invitrogen, USA). Briefly, HCT116-DoxR cells were seeded in six-well plates at a density of 1 × 10^5 cells/mL and incubated for 24 h under the conditions mentioned before. After the incubation period, the medium was replaced with fresh medium containing the tested copper complexes at their IC50 concentrations. 0.1% (v/v) DMSO solution was used as the negative control, and 6 μM Dox, 5 μM Cis, and 42 μM Tertbutyl Hydroperoxide (TBHP) were used as positive controls. The cells were incubated again under the same conditions mentioned above for 48 h. Later, the culture medium was removed, cells were washed with PBS 1× and TrypLE Express to detach them and then they were washed again with PBS 1×. After that, cells were incubated in a solution of 10 μM H2DCF-DA in PBS 1x for 20 min at 37 °C. Subsequently, the samples were analyzed by the Attune Acoustic Focusing Flow Cytometer (Life Technologies, Carlsbad, USA), and the obtained data were processed by the respective software (Attune Cytometric software).

HCT116-DoxR cells [2] = assay: Apoptosis by Annexin V-FITC/PI flow cytometry; conditions: 48 h, complexes at IC50, Dox 6 μM, Cis 5 μM
Procedure: Initially, a quantitative assay with double staining using annexin V-FITC (FITC, fluorescein isothiocyanate) and propidium iodide (PI) through flow cytometry was performed.[24] Annexin V-FITC, a probe with an affinity for the ionic phospholipid phosphatidylserine (PS), predominantly located on the inner side of the plasma membrane in healthy cells, undergoes translocation to the outer plasma membrane during the early stages of apoptosis.[61],[67] In contrast, PI is a DNA intercalating agent that marks cells with compromised plasma membrane (usually in the late stages of apoptosis or in necrosis), emitting red fluorescence upon interaction with nucleic acids.[54],[68] This assay allows for distinguishing cells in four different conditions: viable cells (FITC–, PI−), early apoptosis (FITC+, PI−), late apoptosis (FITC+, PI+), and necrosis (FITC–, PI+).
The Annexin V-FITC Apoptosis Detection Kit (catalog no. V13245, Invitrogen, USA) was used in this study for the induction of apoptosis analysis. HCT116-DoxR cells were seeded in 6-well plates at a cell density of 1 × 10^5 cells/mL and incubated for 24 h, under the same conditions mentioned before. […] After this incubation period, the cells were washed with PBS 1× and trypsinized with TrypLE Express (Invitrogen). The supernatant was discarded, and the pellet was washed with PBS 1×. The cells were resuspended in 1× Annexin V-FITC binding buffer. Subsequently, the samples were incubated at room temperature (RT) with Alexa Fluor 488 annexin V and 100 μg/mL of propidium iodide (PI) in the dark for 15 min. After incubation, 1× Annexin V-FITC binding buffer was added and the samples were analyzed using an Attune Acoustic Focusing Flow Cytometer (Life Technologies, Carlsbad, USA). Results were processed with Attune Cytometric software.

[3] = tested on: A2780 cells (ovarian carcinoma); assay: MTS cell viability assay, A2780; conditions: for IC50: 48 h of exposure, MTS, relative IC50, mean + SEM; for SI A2780: ratio IC50 fibroblasts / IC50 A2780
Procedure: The antiproliferative effect of the Cu(II) complexes in tumor and healthy cell lines was assessed through the MTS assay, a colorimetric method that is widely used to evaluate cellular viability, specifically mitochondrial viability.[53],[54] Cellular viability was determined after 48 h exposure to a concentration range (0.1–50 μM) of Cu(II) complexes in three tumor cell lines. […] Additionally, the viability of healthy primary dermal fibroblasts was performed as a comparison of the complexes’ antiproliferative effects in normal cells.
Cellular viability assays were performed using HCT116, HCT116-DoxR, and A2780 cancer cell lines as well as normal human primary fibroblasts. Cells were seeded at a density of 0.75 × 10^5 cells/mL in 96-well plates and incubated at 37 °C with 5% (v/v) CO2 for 24 h. After this incubation period, the copper complexes were accurately weighed and immediately dissolved in 100% (v/v) dimethyl sulfoxide (DMSO). Subsequently, the complexes were diluted to the final concentration using a cell culture medium. The culture medium in each well was replaced with fresh medium containing varying concentrations of the complexes (ranging from 0.01 to 50 μM). Negative controls contained culture medium with 0.1% (v/v) DMSO, and positive controls contained 0.4 μM Dox.
After an additional 48 h of incubation under the same conditions, cellular viability was assessed using the CellTiter 96 Aqueous One Solution Cell Proliferation Assay kit (Promega, Madison, USA). Metabolically active cells contain mitochondrial dehydrogenases that can reduce 3-(4,5-dimethylthiazol-2-yl)-5-(3-carboxymethoxyphenyl)-2-(4-sulfophenyl)-2H-tetrazolium, the inner salt (MTS) to formazan. The absorbance of formazan, measured at 490 nm in a microplate reader (Tecan Infinite M200, Tecan, Männedorf, Switzerland), is directly proportional to the number of viable cells.[104]
The cell viability versus concentration graphics were analyzed using Prism 8 software (GraphPad) to determine the half-maximal inhibitory concentration (IC50) of each complex for the respective cell line. Additionally, the selective index (SI) for each complex was calculated by dividing the IC50 of human fibroblasts by the IC50 values of the tested cancer cell lines.

Compound: N.N.[Cl][Pt][Cl] [Cisplatin]
- ROS production higher than DMSO control (HCT116-DoxR cells [1]): 2.2 ×
- early apoptosis (HCT116-DoxR cells [2]): 40.1%
- late apoptosis (HCT116-DoxR cells [2]): 25.8%
- necrosis (HCT116-DoxR cells [2]): 0.9% ± 1.1
- early apoptosis (HCT116-DoxR cells [2]; listed as cisplatin): 40.1% ± 11.8
- late apoptosis (HCT116-DoxR cells [2]; listed as cisplatin): 25.8% ± 7.7
- IC50 [3]: 1900 ± 200 nM

Compound: [Cl][Cu-3]12([Cl])[n+]3ccccc3-c3cc(-c4cccc5ccccc45)cc([n+]31)-c1cccc[n+]12 [Cu1a]
- ROS production higher than DMSO control (HCT116-DoxR cells [1]): 1.42 ×
- viable cells (HCT116-DoxR cells [2]): 23.1% ± 4.5
- IC50 [3]: 530 ± 70 nM
- SI A2780 [3]: 17.5

Compound: [Cl][Cu-3]12([Cl])[n+]3ccccc3-c3cc(-c4ccc5ccccc5c4)cc([n+]31)-c1cccc[n+]12 [Cu1b]
- ROS production higher than DMSO control (HCT116-DoxR cells [1]): 1.48 ×
- necrosis (HCT116-DoxR cells [2]): 0.7% ± 0.6
- viable cells (HCT116-DoxR cells [2]): 59.3% ± 7.8
- IC50 [3]: 570 ± 60 nM
- SI A2780 [3]: 23.3

Compound: COc1cccc2c1C(=O)c1c(O)c3c(c(O)c1C2=O)C[C@@](O)(C(=O)CO)C[C@@H]3O[C@H]1C[C@H](N)[C@H](O)[C@H](C)O1 [Doxorubicin]
- ROS production higher than DMSO control (HCT116-DoxR cells [1]): 1.8 ×
- early apoptosis (HCT116-DoxR cells [2]): 16.6% ± 5.5
- late apoptosis (HCT116-DoxR cells [2]): 13.9% ± 1.9
- necrosis (HCT116-DoxR cells [2]): 9.8% ± 4.0
- viable cells (HCT116-DoxR cells [2]): 59.8% ± 3.8
- late apoptosis (HCT116-DoxR cells [2]; listed as Dox): 13.9%
- necrosis (HCT116-DoxR cells [2]; listed as Dox): 9.8%
- viable cells (HCT116-DoxR cells [2]; listed as Dox): about 59.8%
- IC50 ([3]; Homo sapiens, A2780): 100 ± 40 nM

— PMC11571215, “Optimization of Antiproliferative Properties of Triimine Copper(II) Complexes” (Journal of Medicinal Chemistry, 2024)
